One experiment addresses EGFR del19/T790M/C797S (Homo sapiens, UniProt P00533, C797S/DEL746-750/T790M). The experiment is described as follows: Biochemical EGFR kinase assay (Lance Ultra TR-FRET), del19/T790M/C797S. The conditions noted are these: Km ATP; read-out: IC50 del19/T790M/C797S (nM) Km ATP. The procedure: (§1) Biochemical EGFR kinase assays were conducted using Lance Ultra time-resolved fluorescence resonance energy transfer (TR-FRET) technology from Perkin-Elmer. Compounds of the invention were initially diluted to 20 mM in 100% DMSO for storage and made into kinase buffer solution to create a compound concentration ranging from 0.003 μM and 10 μM.
(§2) Each kinase reactions were incubated at room temperature for 1 hour and then stopped by the addition of 4 μL of stop solution (10 mM EDTA). The specific Europium-labeled-anti-phosphopeptide antibody (PerkinElmer, AD0069) diluted in LANCE detection buffer was then added to a final concentration of 2 nM. After 60 minutes incubation at room temperature the LANCE signal was measured on an EnVision Multilabel Reader (Perkin-Elmer). Excitation wavelength was set at 320 nm and emission monitored at 615 nm (donor) and 665 nm (acceptor). The IC50 values were determined using GraphPad prism software (GraphPad Software, Inc., San Diego, CA, USA).
Background: TR-FRET usually uses a lanthanide donor and a delayed reading to cut background.

A further experiment concerns the target EGFR del19/C797S (Homo sapiens, UniProt P00533, C797S/DEL746-750). Description: Biochemical EGFR kinase assay (Lance Ultra TR-FRET), del19/C797S. The conditions noted are these: Km ATP; read-out: IC50 del19/C797S (nM) Km ATP. The procedure:
as §1, §2

The target in the next experiment is EGFR L858R/T790M/C797S (Homo sapiens, UniProt P00533, C797S/L858R/T790M). Description: Biochemical EGFR kinase assay (Lance Ultra TR-FRET), L858R/T790M/C797S. The conditions noted are these: Km ATP; read-out: IC50 L858R/T790M/C797S (nM) Km ATP. The procedure: as §1, §2
Sequence of EGFR L858R/T790M/C797S (P00533 25-1210 T790M/C797S/L858R): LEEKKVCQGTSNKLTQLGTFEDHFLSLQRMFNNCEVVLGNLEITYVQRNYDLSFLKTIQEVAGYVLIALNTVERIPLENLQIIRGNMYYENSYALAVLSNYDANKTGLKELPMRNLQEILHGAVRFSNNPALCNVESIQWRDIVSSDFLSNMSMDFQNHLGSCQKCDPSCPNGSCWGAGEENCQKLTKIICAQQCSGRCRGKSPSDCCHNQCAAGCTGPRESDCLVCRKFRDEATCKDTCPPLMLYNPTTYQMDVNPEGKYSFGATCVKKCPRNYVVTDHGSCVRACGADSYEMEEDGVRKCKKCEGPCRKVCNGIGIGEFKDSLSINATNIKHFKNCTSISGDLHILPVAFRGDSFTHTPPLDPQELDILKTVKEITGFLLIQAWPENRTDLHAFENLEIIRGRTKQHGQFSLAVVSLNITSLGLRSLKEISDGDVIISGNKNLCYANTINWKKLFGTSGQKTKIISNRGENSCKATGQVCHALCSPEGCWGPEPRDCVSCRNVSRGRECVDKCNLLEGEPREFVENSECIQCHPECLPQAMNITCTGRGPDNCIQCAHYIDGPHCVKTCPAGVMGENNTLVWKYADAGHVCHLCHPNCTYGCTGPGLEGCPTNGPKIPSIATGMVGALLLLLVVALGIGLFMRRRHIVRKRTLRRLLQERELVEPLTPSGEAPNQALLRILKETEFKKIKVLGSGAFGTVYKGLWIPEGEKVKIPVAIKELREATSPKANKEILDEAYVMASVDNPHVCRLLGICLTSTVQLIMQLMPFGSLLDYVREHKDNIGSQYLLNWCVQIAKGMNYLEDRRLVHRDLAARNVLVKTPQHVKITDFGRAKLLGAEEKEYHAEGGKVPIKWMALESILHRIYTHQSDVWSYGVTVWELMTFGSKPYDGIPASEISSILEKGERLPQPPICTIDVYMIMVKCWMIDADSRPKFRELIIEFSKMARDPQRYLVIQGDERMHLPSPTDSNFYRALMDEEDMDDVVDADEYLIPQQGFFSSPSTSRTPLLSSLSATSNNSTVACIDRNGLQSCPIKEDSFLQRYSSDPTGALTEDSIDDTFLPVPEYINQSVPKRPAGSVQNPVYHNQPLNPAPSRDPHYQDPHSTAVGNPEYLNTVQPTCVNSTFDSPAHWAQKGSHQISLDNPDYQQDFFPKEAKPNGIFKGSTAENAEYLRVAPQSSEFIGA
The target of another experiment is EGFR wildtype (WT) (Homo sapiens, UniProt P00533). The experiment is described as follows: Biochemical EGFR kinase assay (Lance Ultra TR-FRET), wildtype. The conditions noted are these: Km ATP; read-out: IC50 WT (nM) Km ATP. The procedure: as §1, §2
Sequence of EGFR wildtype (WT) (P00533 25-1210): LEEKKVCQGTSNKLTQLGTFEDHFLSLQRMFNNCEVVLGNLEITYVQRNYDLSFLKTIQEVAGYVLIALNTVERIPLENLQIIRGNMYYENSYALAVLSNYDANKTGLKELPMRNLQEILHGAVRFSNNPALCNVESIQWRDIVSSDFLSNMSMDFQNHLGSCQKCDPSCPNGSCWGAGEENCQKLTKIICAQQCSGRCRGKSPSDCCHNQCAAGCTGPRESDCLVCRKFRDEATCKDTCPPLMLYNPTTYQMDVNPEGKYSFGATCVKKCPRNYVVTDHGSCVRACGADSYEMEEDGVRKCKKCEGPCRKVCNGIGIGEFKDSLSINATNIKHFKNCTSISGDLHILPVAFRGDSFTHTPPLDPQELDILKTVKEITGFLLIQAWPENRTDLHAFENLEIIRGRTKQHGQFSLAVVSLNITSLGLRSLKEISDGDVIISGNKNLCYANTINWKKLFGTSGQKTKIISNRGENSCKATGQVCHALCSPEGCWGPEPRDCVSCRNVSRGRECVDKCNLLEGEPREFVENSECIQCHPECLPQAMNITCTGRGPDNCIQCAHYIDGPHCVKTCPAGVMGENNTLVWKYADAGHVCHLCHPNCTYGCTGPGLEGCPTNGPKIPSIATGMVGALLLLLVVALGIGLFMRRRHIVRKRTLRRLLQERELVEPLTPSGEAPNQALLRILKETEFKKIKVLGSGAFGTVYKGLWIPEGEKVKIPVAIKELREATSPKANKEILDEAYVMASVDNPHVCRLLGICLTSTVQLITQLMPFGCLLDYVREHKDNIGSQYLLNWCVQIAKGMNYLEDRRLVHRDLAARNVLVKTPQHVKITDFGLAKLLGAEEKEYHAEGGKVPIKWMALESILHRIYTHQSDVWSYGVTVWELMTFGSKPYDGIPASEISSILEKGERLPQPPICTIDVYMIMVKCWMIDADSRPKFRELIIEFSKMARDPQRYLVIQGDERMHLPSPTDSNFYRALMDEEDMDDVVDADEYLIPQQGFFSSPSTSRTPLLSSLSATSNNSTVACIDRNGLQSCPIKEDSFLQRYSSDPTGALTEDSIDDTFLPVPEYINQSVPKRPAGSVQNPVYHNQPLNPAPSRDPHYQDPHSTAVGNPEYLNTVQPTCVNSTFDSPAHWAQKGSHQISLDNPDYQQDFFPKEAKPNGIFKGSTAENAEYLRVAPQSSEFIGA

Our source for the IC50 values is patent US11945798B2, “Substituted aminopyridine compounds as EGFR inhibitors” (YUHAN CORPORATION, priority 2021, dated 2024).

Sequence of EGFR del19/C797S (P00533 with tags, fused parts or gaps DEL746-750/C797S): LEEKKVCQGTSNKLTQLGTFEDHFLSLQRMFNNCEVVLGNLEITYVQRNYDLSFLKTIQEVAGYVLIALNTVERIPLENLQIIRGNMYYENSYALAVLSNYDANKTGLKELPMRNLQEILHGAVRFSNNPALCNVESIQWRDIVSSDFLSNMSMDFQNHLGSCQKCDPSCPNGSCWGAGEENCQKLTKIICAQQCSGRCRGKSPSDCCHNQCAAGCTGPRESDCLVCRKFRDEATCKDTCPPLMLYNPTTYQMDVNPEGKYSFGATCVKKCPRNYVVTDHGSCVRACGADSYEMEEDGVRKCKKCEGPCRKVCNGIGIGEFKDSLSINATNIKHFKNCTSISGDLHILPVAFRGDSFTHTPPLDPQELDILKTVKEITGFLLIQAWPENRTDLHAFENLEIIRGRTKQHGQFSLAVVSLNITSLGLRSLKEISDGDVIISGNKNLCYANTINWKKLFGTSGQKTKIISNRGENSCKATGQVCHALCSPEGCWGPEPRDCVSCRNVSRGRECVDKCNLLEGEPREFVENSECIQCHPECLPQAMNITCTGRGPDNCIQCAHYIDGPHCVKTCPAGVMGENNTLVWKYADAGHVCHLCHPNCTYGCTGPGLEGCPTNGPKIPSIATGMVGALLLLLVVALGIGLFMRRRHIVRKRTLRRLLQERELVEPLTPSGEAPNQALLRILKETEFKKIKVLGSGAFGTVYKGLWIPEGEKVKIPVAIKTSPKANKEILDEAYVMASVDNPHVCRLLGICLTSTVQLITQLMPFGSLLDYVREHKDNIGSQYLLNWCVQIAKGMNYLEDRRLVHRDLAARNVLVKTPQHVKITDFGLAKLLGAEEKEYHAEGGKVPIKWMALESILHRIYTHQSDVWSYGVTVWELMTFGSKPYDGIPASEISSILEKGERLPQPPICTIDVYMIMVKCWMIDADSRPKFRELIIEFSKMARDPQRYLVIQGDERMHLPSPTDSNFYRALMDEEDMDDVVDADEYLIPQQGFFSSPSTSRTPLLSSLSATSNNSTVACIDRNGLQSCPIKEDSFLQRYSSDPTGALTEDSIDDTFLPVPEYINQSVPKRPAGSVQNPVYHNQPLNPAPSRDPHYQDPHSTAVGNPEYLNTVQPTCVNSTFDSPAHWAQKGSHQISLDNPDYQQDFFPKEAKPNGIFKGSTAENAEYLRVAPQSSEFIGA
Sequence of EGFR del19/T790M/C797S (P00533 with tags, fused parts or gaps DEL746-750/T790M/C797S): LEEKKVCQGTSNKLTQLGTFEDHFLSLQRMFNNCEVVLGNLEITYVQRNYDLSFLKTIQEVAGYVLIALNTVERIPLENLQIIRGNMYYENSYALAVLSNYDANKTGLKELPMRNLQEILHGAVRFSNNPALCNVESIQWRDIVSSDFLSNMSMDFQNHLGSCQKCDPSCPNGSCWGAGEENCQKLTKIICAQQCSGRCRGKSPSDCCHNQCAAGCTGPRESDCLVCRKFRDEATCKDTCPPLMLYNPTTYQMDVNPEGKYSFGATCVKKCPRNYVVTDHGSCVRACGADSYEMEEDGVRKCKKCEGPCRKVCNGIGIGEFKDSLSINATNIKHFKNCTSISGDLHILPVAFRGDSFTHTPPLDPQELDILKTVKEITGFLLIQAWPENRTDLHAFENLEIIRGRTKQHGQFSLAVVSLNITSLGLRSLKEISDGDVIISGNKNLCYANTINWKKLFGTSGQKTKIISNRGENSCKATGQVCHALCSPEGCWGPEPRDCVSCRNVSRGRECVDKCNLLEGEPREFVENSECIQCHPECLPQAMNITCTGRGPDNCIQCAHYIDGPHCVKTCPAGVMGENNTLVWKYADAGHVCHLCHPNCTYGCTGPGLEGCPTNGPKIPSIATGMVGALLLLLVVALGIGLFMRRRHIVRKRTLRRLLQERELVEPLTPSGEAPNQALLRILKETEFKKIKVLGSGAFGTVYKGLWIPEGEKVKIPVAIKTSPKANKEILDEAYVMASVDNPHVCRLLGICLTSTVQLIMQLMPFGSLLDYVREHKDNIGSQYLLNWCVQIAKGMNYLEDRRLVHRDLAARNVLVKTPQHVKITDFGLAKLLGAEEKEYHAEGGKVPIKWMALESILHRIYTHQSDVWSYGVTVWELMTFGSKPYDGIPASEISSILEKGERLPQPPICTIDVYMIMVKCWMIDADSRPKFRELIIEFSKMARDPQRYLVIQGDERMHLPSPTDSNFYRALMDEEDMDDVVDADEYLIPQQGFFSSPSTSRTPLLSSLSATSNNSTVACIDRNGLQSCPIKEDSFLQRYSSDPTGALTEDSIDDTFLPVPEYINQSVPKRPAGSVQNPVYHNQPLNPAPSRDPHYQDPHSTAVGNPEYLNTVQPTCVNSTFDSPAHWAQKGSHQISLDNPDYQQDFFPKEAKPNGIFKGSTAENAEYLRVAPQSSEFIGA

Regarding `O=C(c1cnc(Nc2ccnc(-c3cnn(S(=O)(=O)C4CC4)c3)n2)cc1NC1CC1)C1CC1` [Example 2, Cyclopropyl(4-(cyclopropylamino)-6-((2-(1-(cyclopropylsulfonyl)-1H-pyrazol-4-yl)pyrimidin-4-yl)amino)pyridin-3-yl)methanone], the IC50 on EGFR del19/T790M/C797S is 72 nM; at EGFR del19/C797S it was 536 nM.
For the compound `O=C(c1cnc(Nc2ccnc(-c3cnn(S(=O)(=O)C4CC4)c3)n2)cc1NCCF)C1CC1` [Example 3, Cyclopropyl(6-((2-(1-(cyclopropylsulfonyl)-1H-pyrazol-4-yl)pyrimidin-4-yl)amino)-4-((2-fluoroethyl)amino)pyridin-3-yl)methanone], the IC50 worked out at 0.9 nM at EGFR del19/T790M/C797S, 232 nM on EGFR del19/C797S, 5.4 nM on EGFR L858R/T790M/C797S and 4200 nM at EGFR wildtype (WT).
Regarding `O=C(c1cnc(Nc2ccnc(-c3cnn(S(=O)(=O)C4CC4)c3)n2)cc1NCc1cnn(CCF)c1)C1CC1` [Example 17, Cyclopropyl(6-((2-(1-(cyclopropylsulfonyl)-1H-pyrazol-4-yl)pyrimidin-4-yl)amino)-4-(((1-(2-fluoroethyl)-1H-pyrazol-4-yl)methyl)amino)pyridin-3-yl)methanone], the IC50 on EGFR del19/T790M/C797S stood at 10.9 nM; on EGFR del19/C797S, 1 nM; at EGFR L858R/T790M/C797S it was 15.5 nM.
The corresponding values for `O=C(c1cnc(Nc2ccnc(-c3cnn(S(=O)(=O)C4CC4)c3)n2)cc1NCC1CCN(CC2CC2)CC1)C1CC1` [Example 18, Cyclopropyl(4-(((1-(cyclopropylmethyl)piperidin-4-yl)methyl)amino)-6-((2-(1-(cyclopropylsulfonyl)-1H-pyrazol-4-yl)pyrimidin-4-yl)amino)pyridin-3-yl)methanone] are 13.5 nM, 1 nM and 17.2 nM.
For `O=C(c1cnc(Nc2ccnc(-c3cnn(S(=O)(=O)C4CC4)c3)n2)cc1NC[C@H]1CC[C@H](Cn2cccn2)CC1)C1CC1` [Example 44, (4-((((1r,4r)-4-((1H-Pyrazol-1-yl)methyl)cyclohexyl)methyl)amino)-6-((2-(1-(cyclopropylsulfonyl)-1H-pyrazol-4-yl)pyrimidin-4-yl)amino)pyridin-3-yl)(cyclopropyl)methanone], the IC50 worked out at 9 nM on EGFR del19/T790M/C797S, 242 nM at EGFR del19/C797S and 796 nM at EGFR wildtype (WT).
In the case of `CN(C)CC1CCC(CNc2cc(Nc3ccnc(-c4cnn(C5CCOC5)c4)n3)ncc2C(=O)C2CC2)CC1` (stereo not drawn) [Example 62, Cyclopropyl(4-((((1r,4r)-4-((dimethylamino)methyl)cyclohexyl)methyl)amino)-6-((2-(1-(tetrahydrofuran-3-yl)-1H-pyrazol-4-yl)pyrimidin-4-yl)amino)pyridin-3-yl)methanone], the IC50 at EGFR del19/T790M/C797S stood at 9.8 nM; at EGFR del19/C797S, 363 nM; on EGFR L858R/T790M/C797S it was 9.4 nM.
Take `CC(C)Nc1cc(Nc2ccnc(-c3cnn(S(=O)(=O)C4CC4)c3)n2)ncc1C(=O)NCC(F)F` [Example 78, 6-((2-(1-(Cyclopropylsulfonyl)-1H-pyrazol-4-yl)pyrimidin-4-yl)amino)-N-(2,2-difluoroethyl)-4-(isopropylamino)nicotinamide]: the IC50 at EGFR del19/T790M/C797S worked out at 14.9 nM; at EGFR del19/C797S it was 225 nM; at EGFR wildtype (WT), 1140 nM.
The corresponding values for `CN(C)C[C@H]1CC[C@H](CNc2cc(Nc3ccnc(-c4cnn(S(=O)(=O)C5CC5)c4)n3)ncc2C(=O)N2CC(F)(F)C2)CC1` [Example 82, (6-((2-(1-(Cyclopropylsulfonyl)-1H-pyrazol-4-yl)pyrimidin-4-yl)amino)-4-((((1r,4r)-4-((dimethylamino)methyl)cyclohexyl)methyl)amino)pyridin-3-yl)(3,3-difluoroazetidin-1-yl)methanone] are 2.8 nM, 24.6 nM and 76.2 nM.
